The values that follow are results of earlier work, collected in US8187607B2, “Hapten-carrier conjugates and uses thereof” (Cytos Biotechnology AG, priority 2002, dated 2012).

In this data set the test system is cigarette smokers. The following applies: at 12 months.

SMILES strings stand for the structures.

Turning to `CC(NC(C)(C)C)C(=O)c1cccc(Cl)c1` (stereo not shown) [bupropion], the Abstinence rates result is recorded as “about 30%”.
